Patent US7972828B2, “Stabilized compositions of thermostable DNA polymerase and anionic or zwitterionic detergent” (Sigma-Aldrich Co., priority 2006, dated 2011)

Experiments:
Format in all cases: biochemical
Taq DNA polymerase [1] = target: T1, Taq DNA polymerase (Thermus aquaticus, UniProt P19821); experiment: PCR detergent screening for ability to stabilize Taq DNA polymerase; conditions: for Detergent supported PCR in screening reactions: detergent tested at 5%, 0.5%, 0.05%, 0.005% or 0.0005%
T1 construct: purchased Sigma Aldrich, St. Louis, Mo
T1 sequence (P19821 whole entry): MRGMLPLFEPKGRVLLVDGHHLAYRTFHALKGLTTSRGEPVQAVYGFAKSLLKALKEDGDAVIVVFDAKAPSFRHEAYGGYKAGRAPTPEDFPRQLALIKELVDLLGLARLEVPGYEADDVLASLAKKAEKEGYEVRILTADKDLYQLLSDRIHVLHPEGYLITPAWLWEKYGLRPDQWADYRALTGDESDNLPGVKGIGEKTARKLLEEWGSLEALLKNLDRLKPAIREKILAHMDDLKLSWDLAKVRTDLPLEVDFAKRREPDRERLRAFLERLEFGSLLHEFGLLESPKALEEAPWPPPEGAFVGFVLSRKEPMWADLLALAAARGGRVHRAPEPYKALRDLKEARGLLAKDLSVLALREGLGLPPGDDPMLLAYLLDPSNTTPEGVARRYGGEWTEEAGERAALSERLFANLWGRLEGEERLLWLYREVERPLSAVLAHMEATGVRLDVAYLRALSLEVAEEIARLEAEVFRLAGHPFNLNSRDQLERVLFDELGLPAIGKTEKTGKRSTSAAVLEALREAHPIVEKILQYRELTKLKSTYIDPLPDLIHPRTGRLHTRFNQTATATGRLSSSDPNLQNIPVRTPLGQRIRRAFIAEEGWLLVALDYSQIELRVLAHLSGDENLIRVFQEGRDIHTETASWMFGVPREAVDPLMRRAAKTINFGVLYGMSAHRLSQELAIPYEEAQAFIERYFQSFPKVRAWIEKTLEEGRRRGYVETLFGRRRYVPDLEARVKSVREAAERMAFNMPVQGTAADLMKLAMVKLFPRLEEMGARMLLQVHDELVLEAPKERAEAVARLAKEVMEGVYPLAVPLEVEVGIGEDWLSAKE
Method: A PCR assay was used to screen 47 of the potential candidate detergents for their ability to stabilize Taq DNA polymerase. The final concentration of each detergent tested was 5%, 0.5%, 0.05%, 0.005%, or 0.0005%. A forward primer (5′-[…]-3′; SEQ ID No:1) and a reverse primer (5′-[…]-3′; SEQ ID No:2) were designed to amplify a 500 bp fragment of lambda DNA. Each 10 μl reaction contained:
1 μl 10 μM Forward Primer
1 μl 10 μM Reverse Primer
0.1 μl 5 Units/μl Taq DNA polymerase
The cycling parameters were 94° C. for 15 min and 30 cycles of 94° C. for 30 sec and 70° C. for 30 sec, and a 4° C. hold. For each series of detergents tested, positive control reactions comprising 0.0005% Tween 20 were included, as well as negative control reactions without any detergent. An aliquot of each reaction was resolved by agarose gel electrophoresis.

Taq DNA polymerase [2] = target: T1, Taq DNA polymerase; experiment: Long-term stability of Taq formulations with DTT, assessed by PCR; conditions: stored at 25° C. 6 to 40 days, higher concentration of DTT (0.2 mM)
Method: The long-term stability of Taq formulated with either Tween 20, an anionic detergent, or a zwitterionic detergent was compared in the presence of two concentrations of DTT. Taq was formulated with 0.01% or 0.1% Tween 20, 0.1% or 1% poly(ethylene glycol) 4-nonylphenyl 3 sulfopropyl ether potassium salt, or 1% CHAPS. Each formulation was stored in the presence of 0.02 mM DTT or 0.2 mM DTT at 25° C. for periods of time ranging from 6 days to 40 days. The calculated corresponding periods for storage at −20° C. ranged from about 1.5 years to about 10 years (see FIG. 2). The ability of various formulations of Taq to support PCR was assessed using a PCR assay similar to that described in Example 1. The same primers and reactions conditions were used.
An aliquot of each reaction was resolved by agarose gel electrophoresis.

Taq DNA polymerase [3] = target: T1, Taq DNA polymerase; experiment: SYBR Green quantitative real-time PCR amplification efficiency on human genomic DNA; design: key to Reaction Efficiencies CD14F: *: No amplification product; key to Ct 14-3-3 / Ct CD14F / Ct HoxA2: cycle at which fluorescence exceeds a defined threshold; conditions: for Efficiency (dilutional efficiency) 14-3-3 / Efficiency (dilutional efficiency) CD14F / Efficiency (dilutional efficiency) HoxA2 / Efficiency (dilutional efficiency) PGK1: slope of serially diluted template plots
Excerpt: The efficiency of amplification by Taq DNA polymerase in the presence of Tween 20 or the anionic detergent, poly (ethylene glycol) 4-nonylphenyl 3 sulfopropyl ether potassium salt, was compared using SYBR Green quantitative real-time PCR (qPCR) to amplify four different fragments in Msel-digested or intact human genomic DNA. Each reaction comprised 1× Jumpstart Taq Ready mix (Sigma Aldrich, St. Louis, Mo.) formulated with Tween 20 or poly (ethylene glycol) 4-nonylphenyl 3 sulfopropyl ether potassium salt, 1×ROX (reference dye), 0.8×SYBR green, 0.4 μM primers. The template was serially diluted such that reactions contained 25 ng, 2.5 ng, or 0.25 ng of intact DNA or 400 ng, 40 ng, of 4 ng of digested DNA. The cycling profile was 95° C. for 3 min, 35 cycles of 95° C. for 30 sec, 55° C. for 60 sec, and 72° C. for 120 sec.
Table 2 presents the Ct values (which is the cycle that the fluorescence exceeds a defined threshold value) for each amplified product using the different templates. The ‘no template’ control reactions (for every primer pair) produced no amplicons.
The efficiency of amplification was derived from the slopes of the serially diluted template amplification plots (dilutional efficiency), and the percent efficiency is also presented in Table 2.
Individual reaction efficiencies were calculated in an effort to explore the nature of the dilutional efficiency effects. […] That is, reactions with lower amounts of template were less efficiently primed or initiated in the presence of Tween 20 than in the presence of the anionic surfactant. Once the amplification process began, however, the reaction efficiencies were detergent independent.

Taq DNA polymerase [4] = target: T1, Taq DNA polymerase; experiment: Specificity of PCR amplification (BsrGIO, SacIO fragments) on agarose gel; conditions: 352 bp and 360 bp fragments, HEK293 genomic DNA
Method: To determine whether amplification in the presence of the anionic detergent, poly (ethylene glycol) 4-nonylphenyl 3-sulfopropyl ether potassium salt, produced less non-specific products, formulations comprising Tween 20 were compared to an anionic detergent formulation. Primers (see Table 4) were designed to amplify a 352 by fragment (BsrGIO) and a 360 by fragment (SacIO) in human genomic DNA. The reactions (50 μl) contained […] HEK293 genomic DNA, […], 1×PCR Buffer, 0.2 mM dNTPs, 0.05 U/μL Taq, and 4% DMSO. Thermocycling parameters were 94° C. for 2 min, 30 cycles of 94° C. for 20 sec, 58° C. for 30 sec, and 72° C. for 80 sec, a final extension at 72° C. for 10 min, and a 4° C. hold.
Aliquots of each sample were run on an agarose gel (FIG. 3). […] This finding raises the possibility that there may be a multimolecular complex comprising template, primer, detergent, and enzyme, and it is possible that the anionic detergent increased the coulombic repulsion between template/primers and the […].

C[C@H](CCC(=O)NCCC[N+](C)(C)CCCS(=O)(=O)[O-])[C@H]1CC[C@H]2[C@@H]3[C@H](O)C[C@@H]4C[C@H](O)CC[C@]4(C)[C@@]3(C)C[C@H](O)[C@]12C [CHAPS, 3-[(3-cholamidopropyl)dimethylammonio]-1-propanesulfonate]
Detergent supported PCR in screening reactions (Taq DNA polymerase [1]): supported PCR
Ability of stored Taq formulation to support PCR (Taq DNA polymerase [2]): substantially able to support PCR

C[C@H](CCC(=O)NCCC[N+](C)(C)CC(O)CS(=O)(=O)[O-])[C@H]1CC[C@H]2[C@@H]3[C@H](O)C[C@@H]4C[C@H](O)CC[C@]4(C)[C@H]3C[C@H](O)[C@]12C (stereo partly shown) [CHAPSO, 3-[(3-cholamidopropyl)dimethylammonio]-2-hydroxy-1-propanesulfonate]
Detergent supported PCR in screening reactions (Taq DNA polymerase [1]): supported PCR

nonyl nonoxynol-15 phosphate [Rhodafac RM710]
Detergent supported PCR in screening reactions (Taq DNA polymerase [1]): supported PCR
Amplified products (500 bp lambda DNA fragment) on agarose gel (Taq DNA polymerase [1]; low concentration of the detergent): Amplified products were present

poly (ethylene glycol) 4-nonylphenyl 3-sulfopropyl ether potassium salt [Anionic]
Detergent supported PCR in screening reactions (Taq DNA polymerase [1]): supported PCR
Ability of stored Taq formulation to support PCR (Taq DNA polymerase [2]): able to support PCR at all the times tested
Ct 14-3-3 (Taq DNA polymerase [3]; Intact DNA, 0.25 ng): 30.8
Ct CD14F (Taq DNA polymerase [3]; Intact DNA, 0.25 ng): No Ct
Ct HoxA2 (Taq DNA polymerase [3]; Intact DNA, 0.25 ng): 30.41
Ct PGK1 (Taq DNA polymerase [3]; Intact DNA, 0.25 ng): 31.59
Ct 14-3-3 (Taq DNA polymerase [3]; Intact DNA, 2.5 ng): 27.88
Ct CD14F (Taq DNA polymerase [3]; Intact DNA, 2.5 ng): 33.98
Ct HoxA2 (Taq DNA polymerase [3]; Intact DNA, 2.5 ng): 26.92
Ct PGK1 (Taq DNA polymerase [3]; Intact DNA, 2.5 ng): 28.33
Ct 14-3-3 (Taq DNA polymerase [3]; Intact DNA, 25 ng): 24.31
Ct CD14F (Taq DNA polymerase [3]; Intact DNA, 25 ng): 28.72
Ct HoxA2 (Taq DNA polymerase [3]; Intact DNA, 25 ng): 23.33
Ct PGK1 (Taq DNA polymerase [3]; Intact DNA, 25 ng): 23.62
Reaction Efficiencies 14-3-3 (Taq DNA polymerase [3]; Intact DNA, 0.25): 98%
Reaction Efficiencies CD14F (Taq DNA polymerase [3]; Intact DNA, 0.25): *
Reaction Efficiencies HoxA2 (Taq DNA polymerase [3]; Intact DNA, 0.25): 102%
Reaction Efficiencies PGK1 (Taq DNA polymerase [3]; Intact DNA, 0.25): 97%
Reaction Efficiencies 14-3-3 (Taq DNA polymerase [3]; Intact DNA, 2.5): 115%
Reaction Efficiencies CD14F (Taq DNA polymerase [3]; Intact DNA, 2.5): 124%
Reaction Efficiencies HoxA2 (Taq DNA polymerase [3]; Intact DNA, 2.5): 102%
Reaction Efficiencies PGK1 (Taq DNA polymerase [3]; Intact DNA, 2.5): 101%
Reaction Efficiencies 14-3-3 (Taq DNA polymerase [3]; Intact DNA, 25): 102%
Reaction Efficiencies CD14F (Taq DNA polymerase [3]; Intact DNA, 25): 99%
Reaction Efficiencies HoxA2 (Taq DNA polymerase [3]; Intact DNA, 25): 104%
Reaction Efficiencies PGK1 (Taq DNA polymerase [3]; Intact DNA, 25): 98%
Efficiency (dilutional efficiency) 14-3-3 (Taq DNA polymerase [3]; Intact DNA): 105%
Efficiency (dilutional efficiency) CD14F (Taq DNA polymerase [3]; Intact DNA): 26%
Efficiency (dilutional efficiency) HoxA2 (Taq DNA polymerase [3]; Intact DNA): 86%
Efficiency (dilutional efficiency) PGK1 (Taq DNA polymerase [3]; Intact DNA): 63%
Ct 14-3-3 (Taq DNA polymerase [3]; Mse-I digested DNA, 4 ng): 28.65
Ct CD14F (Taq DNA polymerase [3]; Mse-I digested DNA, 4 ng): No Ct
Ct HoxA2 (Taq DNA polymerase [3]; Mse-I digested DNA, 4 ng): 29.96
Ct PGK1 (Taq DNA polymerase [3]; Mse-I digested DNA, 4 ng): 31.38
Ct 14-3-3 (Taq DNA polymerase [3]; Mse-I digested DNA, 40 ng): 24.86
Ct CD14F (Taq DNA polymerase [3]; Mse-I digested DNA, 40 ng): 34.72
Ct HoxA2 (Taq DNA polymerase [3]; Mse-I digested DNA, 40 ng): 26.47
Ct PGK1 (Taq DNA polymerase [3]; Mse-I digested DNA, 40 ng): 27.95
Ct 14-3-3 (Taq DNA polymerase [3]; Mse-I digested DNA, 400 ng): 21.17
Ct CD14F (Taq DNA polymerase [3]; Mse-I digested DNA, 400 ng): 30.15
Ct HoxA2 (Taq DNA polymerase [3]; Mse-I digested DNA, 400 ng): 22.27
Ct PGK1 (Taq DNA polymerase [3]; Mse-I digested DNA, 400 ng): 23.17
Efficiency (dilutional efficiency) 14-3-3 (Taq DNA polymerase [3]; Mse-I digested DNA): 75%
Efficiency (dilutional efficiency) CD14F (Taq DNA polymerase [3]; Mse-I digested DNA): 42%
Efficiency (dilutional efficiency) HoxA2 (Taq DNA polymerase [3]; Mse-I digested DNA): 69%
Efficiency (dilutional efficiency) PGK1 (Taq DNA polymerase [3]; Mse-I digested DNA): 58%
Reaction Efficiencies 14-3-3 (Taq DNA polymerase [3]; MseI digested DNA, 4 ng): 103%
Reaction Efficiencies CD14F (Taq DNA polymerase [3]; MseI digested DNA, 4 ng): *
Reaction Efficiencies HoxA2 (Taq DNA polymerase [3]; MseI digested DNA, 4 ng): 99%
Reaction Efficiencies PGK1 (Taq DNA polymerase [3]; MseI digested DNA, 4 ng): 97%
Reaction Efficiencies 14-3-3 (Taq DNA polymerase [3]; MseI digested DNA, 40 ng): 107%
Reaction Efficiencies CD14F (Taq DNA polymerase [3]; MseI digested DNA, 40 ng): 92%
Reaction Efficiencies HoxA2 (Taq DNA polymerase [3]; MseI digested DNA, 40 ng): 101%
Reaction Efficiencies PGK1 (Taq DNA polymerase [3]; MseI digested DNA, 40 ng): 102%
Reaction Efficiencies 14-3-3 (Taq DNA polymerase [3]; MseI digested DNA, 400 ng): 101%
Reaction Efficiencies CD14F (Taq DNA polymerase [3]; MseI digested DNA, 400 ng): 99%
Reaction Efficiencies HoxA2 (Taq DNA polymerase [3]; MseI digested DNA, 400 ng): 100%
Reaction Efficiencies PGK1 (Taq DNA polymerase [3]; MseI digested DNA, 400 ng): 97%
Average efficiency of the three amplicons with efficiencies for both formulations (Taq DNA polymerase [3]; digested templates): 67.3%
Efficiency compared with the corresponding Tween 20 formulation (Taq DNA polymerase [3]; each amplicon): higher efficiency
Ct values compared with Tween 20-containing amplification mixes (Taq DNA polymerase [3]; higher dilutions of template): lower Ct values at higher dilutions
Average efficiency of the three amplicons with efficiencies for both formulations (Taq DNA polymerase [3]; intact templates): 84.7%
Non-specific, secondary amplification products compared with standard Tween 20 formulations (Taq DNA polymerase [4]): fewer non-specific, secondary amplification products

poly(ethylene glycol) monolaurate
Detergent supported PCR in screening reactions (Taq DNA polymerase [1]): supported PCR

polyoxyethylene(150)dinonylphenyl ether [Igepal® DM-970]
Detergent supported PCR in screening reactions (Taq DNA polymerase [1]): supported PCR
